Measured values from patent US11046680B1, “Heteroaryl-substituted triazoles as APJ receptor agonists” (priority 2016, dated 2021).

The compounds below were run against human APJ receptor (Homo sapiens (Human), UniProt P35414) (assay: biochemical). Settings: [35S]GTPγS binding, CHO membranes expressing human APJ receptor; read-out: Activity hAPJ SPA EC50 IP.
Assay type: biochemical
Method in brief: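 GTPγS binding on membranes from CHO cells stably expressing FLAG-tagged human APJ, with optimized GDP, MgCl2 and NaCl; incubated 90 min at RT before imaging read-out.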

Sequence of human APJ receptor (P35414 whole entry): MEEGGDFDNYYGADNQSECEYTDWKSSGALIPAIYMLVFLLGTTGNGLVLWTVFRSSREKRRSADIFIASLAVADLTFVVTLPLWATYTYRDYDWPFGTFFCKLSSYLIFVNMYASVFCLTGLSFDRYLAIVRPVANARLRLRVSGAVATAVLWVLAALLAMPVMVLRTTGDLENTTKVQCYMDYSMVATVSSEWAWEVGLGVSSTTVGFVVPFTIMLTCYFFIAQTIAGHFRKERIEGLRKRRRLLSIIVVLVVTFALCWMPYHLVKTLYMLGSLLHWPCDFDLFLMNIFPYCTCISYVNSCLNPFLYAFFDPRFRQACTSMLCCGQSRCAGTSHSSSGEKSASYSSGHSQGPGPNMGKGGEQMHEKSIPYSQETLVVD

Compound | EC50 [nM]
COc1cccc(OC)c1-n1c(NS(=O)(=O)[C@@H](C)[C@H](C)c2ncc(C)cn2)nnc1-c1ccn(C)n1 [Example 201.0, (2S,3R)-N-(4-(2,6-dimethoxyphenyl)-5-(1-methyl-1H-pyrazol-3-yl)-4H-1,2,4-triazol-3-yl)-3-(5-methyl-2-pyrimidinyl)-2-butanesulfonamide] | 0.93
COc1cccc(OC)c1-n1c(NS(=O)(=O)[C@@H](C)[C@H](O)c2ncc(C)cn2)nnc1-c1cc(C)n[nH]1 [Example 349.0, (1R,2S)-N-(4-(2,6-Dimethoxyphenyl)-5-(3-methyl-1H-pyrazol-5-yl)-4H-1,2,4-triazol-3-yl)-1-hydroxy-1-(5-methylpyrimidin-2-yl)propane-2-sulfonamide] | 2.1
COc1ccccc1-n1c(NS(=O)(=O)CCc2ccccc2)nnc1-c1cccs1 [Example 238.0, N-(4-(2-methoxyphenyl)-5-(2-thiophenyl)-4H-1,2,4-triazol-3-yl)-2-phenylethanesulfonamide] | 226
CCO[C@H](c1ncc(C)cn1)[C@H](C)S(=O)(=O)Nc1nnc(-c2cc3n(n2)CCC3)n1-c1c(OC)cccc1OC [Example 217.0, (1R,2S)-N-(5-(5,6-dihydro-4H-pyrrolo[1,2-b]pyrazol-2-yl)-4-(2,6-dimethoxyphenyl)-4H-1,2,4-triazol-3-yl)-1-ethoxy-1-(5-methyl-2-pyrimidinyl)-2-propanesulfonamide] | 2.8
COc1ccccc1-n1c(NS(=O)(=O)Cc2ccc(Cl)cc2)nnc1-c1cccs1 [Example 234.0, 1-(4-chlorophenyl)-N-(4-(2-methoxyphenyl)-5-(2-thiophenyl)-4H-1,2,4-triazol-3-yl)methanesulfonamide] | 340
CCn1ccc(-c2nnc(NS(=O)(=O)[C@@H](C)[C@@](O)(c3ncc(C)cn3)C(F)(F)F)n2-c2c(OC)cccc2OC)n1 [Example 390.0, (2S,3R)-N-(4-(2,6-Dimethoxyphenyl)-5-(1-ethyl-1H-pyrazol-3-yl)-4H-1,2,4-triazol-3-yl)-4,4,4-trifluoro-3-hydroxy-3-(5-methylpyrimidin-2-yl)butane-2-sulfonamide and (2S,3S)-N-(4-(2,6-dimethoxyphenyl)-5-(1-ethyl-H-pyrazol-3-yl)-4H-1,2,4-triazol-3-yl)-4,4,4-trifluoro-3-hydroxy-3-(5-methylpyrimidin-2-yl)butane-2-sulfonamide] | 73
COc1cccc(OC)c1-n1c(NS(=O)(=O)[C@H](C)Cc2ncc(F)cn2)nnc1-c1nc(C)cs1 (single isomer, unassigned) [Example 102.0, (R)-N-(4-(2,6-Dimethoxyphenyl)-5-(4-methylthiazol-2-yl)-4H-1,2,4-triazol-3-yl)-1-(5-fluoropyrimidin-2-yl)propane-2-sulfonamide or (S)-N-(4-(2,6-dimethoxyphenyl)-5-(4-methylthiazol-2-yl)-4H-1,2,4-triazol-3-yl)-1-(5-fluoropyrimidin-2-yl)propane-2-sulfonamide] | 4.1
CO[C@H](c1ncc(Cl)cn1)[C@H](C)S(=O)(=O)Nc1nnc(-c2noc3ccccc23)n1C(C)C [Example 511.0, (1R,2S)-N-(5-(benzo[d]isoxazol-3-yl)-4-isopropyl-4H-1,2,4-triazol-3-yl)-1-(5-chloropyrimidin-2-yl)-1-methoxypropane-2-sulfonamide] | 200
COc1cnc([C@@H](OC)[C@H](C)S(=O)(=O)Nc2nnc(-c3ccn(C)n3)n2-c2c(OC)ncnc2OC)cn1 [Example 460.0, (1R,2S)-N-(4-(4,6-dimethoxy-5-pyrimidinyl)-5-(1-methyl-1H-pyrazol-3-yl)-4H-1,2,4-triazol-3-yl)-1-methoxy-1-(5-methoxy-2-pyrazinyl)-2-propanesulfonamide] | 2.6
COCC(COC)n1c(NS(=O)(=O)[C@@H](C)[C@H](C)c2ncc(Cl)cn2)nnc1-c1nn(C)c2ccccc12 [Example 449.0, (2S,3R)-3-(5-chloropyrimidin-2-yl)-N-(4-(1,3-dimethoxypropan-2-yl)-5-(1-methyl-1H-indazol-3-yl)-4H-1,2,4-triazol-3-yl)butane-2-sulfonamide] | 13
COc1cccc(OC)c1-n1c(NS(=O)(=O)CCc2ncc(F)cn2)nnc1-c1nc(C)cs1 [Example 94.0, N-(4-(2,6-dimethoxyphenyl)-5-(4-methylthiazol-2-yl)-4H-1,2,4-triazol-3-yl)-2-(5-fluoropyrimidin-2-yl)ethanesulfonamide] | 2.7
CO[C@H](c1cnc(C)cn1)[C@H](C)S(=O)(=O)Nc1nnc(-c2ccn(C)n2)n1-c1c(F)cccc1F [Example 232.0, (1R,2S)-N-(4-(2,6-difluorophenyl)-5-(1-methyl-1H-pyrazol-3-yl)-4H-1,2,4-triazol-3-yl)-1-methoxy-1-(5-methyl-2-pyrazinyl)-2-propanesulfonamide] | 54
COCC1(n2c(NS(=O)(=O)[C@@H](C)[C@H](OC)c3ncc(Cl)cn3)nnc2-c2n[nH]c3c2CCC3)CCC1 [Example 489.0] | 1.3
COc1ncnc(OC)c1-n1c(NS(=O)(=O)[C@@H](C)[C@H](C)c2ncc(C)cn2)nnc1-c1noc2ccccc12 [Example 88.0, (2S,3R)-N-(5-(benzo[d]isoxazol-3-yl)-4-(4,6-dimethoxypyrimidin-5-yl)-4H-1,2,4-triazol-3-yl)-3-(5-methylpyrimidin-2-yl)butane-2-sulfonamide] | 50
COc1cccc(OC)c1-n1c(NS(=O)(=O)CCc2ccc(Cl)cc2)nnc1-c1cncn1C [Example 93.0, 2-(4-chlorophenyl)-N-(4-(2,6-dimethoxyphenyl)-5-(1-methyl-1H-imidazol-5-yl)-4H-1,2,4-triazol-3-yl)ethanesulfonamide] | 20
COc1cccc(OC)c1-n1c(NS(=O)(=O)[C@@H](C)[C@H](OC)c2ncc(C)cn2)nnc1-c1ncc(C)s1 [Example 331.0, (1R,2S)-N-(4-(2,6-Dimethoxyphenyl)-5-(5-methyl-1,3-thiazol-2-yl)-4H-1,2,4-triazol-3-yl)-1-methoxy-1-(5-methyl-2-pyrimidinyl)-2-propanesulfonamide] | 0.98
(R)-N-(4-(2,6-dimethoxyphenyl)-5-(1-methyl-1H-pyrazol-4-yl)-4H-1,2,4-triazol-3-yl)-1-(5-fluoropyrimidin-2-yl)propane-2-sulfonamide and (R)-N-(4-(2,6-dimethoxyphenyl)-5-(1-methyl-1H-pyrazol-4-yl)-4H-1,2,4-triazol-3-yl)-1-(5-fluoropyrimidin-2-yl)propane-2-sulfonamide [Example 40.0] | 5.2
CCn1ccc(-c2nnc(NS(=O)(=O)[C@@H](C)[C@H](C)c3ncc(F)cn3)n2-c2c(OC)cccc2OC)n1 [Example 191.0, (2S,3R)-N-(4-(2,6-dimethoxyphenyl)-5-(1-ethyl-1H-pyrazol-3-yl)-4H-1,2,4-triazol-3-yl)-3-(5-fluoro-2-pyrimidinyl)-2-butanesulfonamide] | 0.63
COc1cccc(OC)c1-n1c(NS(=O)(=O)C[C@H](OC)c2ccc(Cl)cc2S(C)(=O)=O)nnc1-c1ccn(C)n1 (single isomer, unassigned) [Example 381.0, (R)-2-(4-Chloro-2-(methylsulfonyl)phenyl)-N-(4-(2,6-dimethoxyphenyl)-5-(1-methyl-1H-pyrazol-3-yl)-4H-1,2,4-triazol-3-yl)-2-methoxyethanesulfonamide or (S)-2-(4-chloro-2-(methylsulfonyl)phenyl)-N-(4-(2,6-dimethoxyphenyl)-5-(1-methyl-1H-pyrazol-3-yl)-4H-1,2,4-triazol-3-yl)-2-methoxyethanesulfonamide] | 0.29
COc1cccc(OC)c1-n1c(NS(=O)(=O)[C@@H]2CCCN(c3ncc(F)cn3)C2)nnc1-c1ccn(C)n1 (single isomer, unassigned) [Example 262.0, (3R)-N-(4-(2,6-dimethoxyphenyl)-5-(1-methyl-1H-pyrazol-3-yl)-4H-1,2,4-triazol-3-yl)-1-(5-fluoro-2-pyrimidinyl)-3-piperidinesulfonamide or (3S)-N-(4-(2,6-dimethoxyphenyl)-5-(1-methyl-1H-pyrazol-3-yl)-4H-1,2,4-triazol-3-yl)-1-(5-fluoro-2-pyrimidinyl)-3-piperidinesulfonamide] | 4.8
COc1cccc(OC)c1-n1c(NS(=O)(=O)[C@H](C)[C@H](C)c2ncc(F)cn2)nnc1-c1nc(C)cs1 (single isomer, unassigned) [Example 165.0] | 110
COc1cccc(OC)c1-n1c(NS(=O)(=O)CCc2ccc(F)cc2Br)nnc1-c1nccs1 [Example 140.0, 2-(2-bromo-4-fluorophenyl)-N-(4-(2,6-dimethoxyphenyl)-5-(thiazol-2-yl)-4H-1,2,4-triazol-3-yl)ethanesulfonamide] | 24.5
COc1cccc(OC)c1-n1c(NS(=O)(=O)[C@H](C)Cc2ncc(F)cn2)nnc1-c1nc(C(C)C)cs1 (single isomer, unassigned) [Example 158.0, (R)-N-(4-(2,6-dimethoxyphenyl)-5-(4-isopropylthiazol-2-yl)-4H-1,2,4-triazol-3-yl)-1-(5-fluoropyrimidin-2-yl)propane-2-sulfonamide or (S)-N-(4-(2,6-dimethoxyphenyl)-5-(4-isopropylthiazol-2-yl)-4H-1,2,4-triazol-3-yl)-1-(5-fluoropyrimidin-2-yl)propane-2-sulfonamide] | 4.1
COc1cccc(OC)c1-n1c(NS(=O)(=O)[C@@H](C)[C@H](OC)c2ncc(Cl)cn2)nnc1-c1cnn2ccccc12 [Example 423.0, (1R,2S)-1-(5-chloropyrimidin-2-yl)-N-(4-(2,6-dimethoxyphenyl)-5-(pyrazolo [1,5-a]pyridin-3-yl)-4H-1,2,4-triazol-3-yl)-1-methoxypropane-2-sulfonamide] | 0.68
COc1ccccc1-n1c(NS(=O)(=O)CCc2ccc(Cl)cc2)nnc1-c1ccc(F)s1 [Example 239.0, 2-(4-chlorophenyl)-N-(5-(5-fluorothiophen-2-yl)-4-(2-methoxyphenyl)-4H-1,2,4-triazol-3-yl)ethanesulfonamide] | 210
